According to the supplement of paper PMC10307832:

Columns and labels:
Assay in all cases: relative viability (nuclei count vs DMSO), 5 days (fraction); higher = more cells survive
AZ628 + Pemetrexed = compound: CC1=C(C=C(C=C1)NC(=O)C2=CC(=CC=C2)C(C)(C)C#N)NC3=CC4=C(C=C3)N=CN(C4=O)C [AZ628] + Nc1nc2[nH]cc(CCc3ccc(C(=O)N[C@@H](CCC(=O)O)C(=O)O)cc3)c2c(=O)[nH]1 [Pemetrexed] (partner 0.2 µM)
Summary of the method: (§1)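 Lung cancer cell lines in 1536-well plates were dosed by pin tool the day after seeding, either with one drug alone or with a fixed anchor-drug dose plus five library-drug doses (not always all listed) in √10 steps. After 5 days, cells were fixed and their nuclei stained in one step (final 0.05% Triton X-100, 1% formaldehyde, 1 ug/ml Hoechst), then counted on 4× images. Relative viability is the nuclei count in treated wells divided by that in vehicle wells. Values are medians of duplicate plates.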

QS11 + Olaparib = compound: C1CC2=C(C1)C=C(C=C2)OC3=NC(=C4C(=N3)N(C=N4)CC5=CC=C(C=C5)C6=CC=CC=C6)N[C@@H](CC7=CC=CC=C7)CO [QS11] + O=C(c1cc(Cc2n[nH]c(=O)c3ccccc23)ccc1F)N1CCN(C(=O)C2CC2)CC1 [Olaparib] (partner 8 µM)
Summary of the method: as §1

[1] = compound: C[As](C)SC[C@H](NC(=O)CC[C@H](N)C(=O)O)C(=O)NCC(=O)O [Darinaparsin] + CC(=O)Nc1cccc(-n2c(=O)n(C3CC3)c(=O)c3c(Nc4ccc(I)cc4F)n(C)c(=O)c(C)c32)c1 [Trametinib] (partner 0.02 µM)
Summary of the method: as §1

AZ628 + Pictilisib = compound: CC1=C(C=C(C=C1)NC(=O)C2=CC(=CC=C2)C(C)(C)C#N)NC3=CC4=C(C=C3)N=CN(C4=O)C [AZ628] + CS(=O)(=O)N1CCN(Cc2cc3nc(-c4cccc5[nH]ncc45)nc(N4CCOCC4)c3s2)CC1 [Pictilisib] (partner 1 µM)
Summary of the method: as §1

Cell Line	relative viability (AZ628 + Pemetrexed; first compound 0.08 µM)	relative viability (AZ628 + Pemetrexed; first compound 0.253 µM)	relative viability (AZ628 + Pemetrexed; first compound 0.8 µM)	relative viability (AZ628 + Pemetrexed; first compound 2.53 µM)	relative viability (AZ628 + Pemetrexed; first compound 8 µM)	relative viability (QS11 + Olaparib; first compound 0.08 µM)	relative viability (QS11 + Olaparib; first compound 0.253 µM)	relative viability (QS11 + Olaparib; first compound 0.8 µM)	relative viability (QS11 + Olaparib; first compound 2.53 µM)	relative viability (QS11 + Olaparib; first compound 8 µM)	relative viability ([1]; first compound 0.08 µM)	relative viability ([1]; first compound 0.8 µM)	relative viability ([1]; first compound 2.53 µM)	relative viability ([1]; first compound 8 µM)	relative viability (AZ628 + Pictilisib; first compound 0.08 µM)	relative viability (AZ628 + Pictilisib; first compound 0.253 µM)	relative viability (AZ628 + Pictilisib; first compound 0.8 µM)	relative viability (AZ628 + Pictilisib; first compound 2.53 µM)	relative viability (AZ628 + Pictilisib; first compound 8 µM)
NCI-H1755	0.421	0.434	0.403	0.579	0.353	0.856	0.876	0.665	0.767	0.648	0.811	0.795	0.857	0.844	0.378	0.346	0.29	0.275	0.203
NCI-H1792	1	0.677	0.457	0.583	0.368	–	0.442	0.459	0.519	0.394	0.513	0.52	–	0.557	0.251	0.296	0.212	0.223	0.149
NCI-H1793	1.16	0.617	0.971	0.757	0.522	0.979	0.837	0.827	0.847	1.06	0.427	0.482	–	0.526	0.345	0.202	0.32	0.275	0.196
NCI-H1915	0.518	0.506	0.455	0.359	0.242	0.227	0.25	–	0.259	0.275	0.336	0.301	0.288	0.3	0.822	0.67	0.693	0.493	0.313
NCI-H1944	0.624	0.576	0.511	0.52	0.394	0.395	0.482	–	0.397	0.394	0.404	0.401	0.371	0.408	0.359	0.321	0.322	0.29	0.321
NCI-H1975	0.333	0.257	0.27	0.287	0.259	0.814	0.891	0.814	1.07	0.688	0.35	0.382	0.328	0.307	0.309	0.285	0.29	0.277	0.206
NCI-H1993	0.631	0.598	0.47	0.488	0.461	1.06	1.01	1.22	1.35	1.05	0.661	0.5	0.512	0.589	0.784	0.829	0.705	0.769	0.726
NCI-H2009	1.1	1.09	1.05	1	0.464	0.596	0.816	0.679	0.613	0.49	0.283	0.246	0.196	0.27	0.512	0.311	0.291	0.277	0.226
NCI-H2023	0.272	0.208	0.193	0.201	0.125	0.414	0.556	0.398	0.514	0.439	0.728	0.557	0.629	0.579	0.218	0.23	0.236	0.196	0.202
NCI-H2085	0.951	0.971	0.87	0.865	0.772	0.741	0.846	0.773	0.785	0.976	0.469	0.477	0.586	0.618	0.506	0.413	0.408	0.386	0.378
NCI-H2087	0.671	0.632	0.604	0.501	0.281	0.743	0.743	0.553	0.623	0.644	0.185	0.176	0.185	0.263	0.617	0.35	0.325	0.341	0.291
NCI-H2126	0.757	0.665	0.586	0.655	0.588	0.874	0.95	0.8	0.799	0.634	0.629	0.563	0.575	0.542	0.533	0.549	0.537	0.513	0.457
NCI-H2170	0.285	0.259	0.267	0.3	0.266	0.549	0.632	0.539	0.596	0.722	1.17	0.955	0.926	1.18	0.386	0.305	0.354	0.337	0.275
NCI-H2228	0.348	0.296	0.351	0.355	0.234	0.586	0.663	0.727	0.648	0.993	0.563	0.382	0.462	0.354	0.397	0.32	0.368	0.329	0.264
NCI-H2347	0.401	0.415	0.354	0.464	0.321	0.55	0.541	0.544	0.519	0.683	0.249	0.266	0.307	0.242	0.321	0.437	0.312	0.32	0.287
NCI-H2405	0.839	0.698	0.673	0.632	0.624	0.847	0.803	0.768	0.961	0.83	0.702	0.562	0.55	0.668	0.222	0.249	0.256	0.255	0.257
NCI-H3122	0.185	0.166	0.161	0.159	0.151	0.636	0.694	–	0.601	0.637	0.231	0.208	0.216	0.347	0.286	0.218	0.214	0.214	0.234
